This is an account of results in patent US8519149B2, “Tricyclic compounds as mPGES-1 inhibitors” (Glenmark Pharmaceuticals S.A., priority 2010, dated 2013).

Bounds are passed on as bounds.

For the assay, the target named is T1, Recombinant human mPGES-1 (Homo sapiens, UniProt O14684).
T1 sequence (O14684 1-152): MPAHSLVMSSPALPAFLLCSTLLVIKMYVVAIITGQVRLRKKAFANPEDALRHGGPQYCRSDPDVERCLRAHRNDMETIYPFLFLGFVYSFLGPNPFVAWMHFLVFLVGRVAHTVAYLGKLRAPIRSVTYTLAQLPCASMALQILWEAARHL
Briefly: In-vitro mPGES-1 enzyme inhibition assay (PGE2 formation from PGH2, HTRF detection). Type of assay: biochemical. To be noted: for inhibition at 1 µM: 1 μM test compound, read-out: Percentage inhibition at 1 μM; for inhibition at 1 µM / inhibition at 10 µM: recombinant human mPGES-1 microsomal fraction; for inhibition at 10 µM: 10 μM test compound, read-out: Percentage inhibition at 10 μM; for IC50: class symbols, selected examples. An outline of the steps:
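IC50 values were derived by nonlinear regression of percent inhibition relative to enzyme reactions run without inhibitor. PGE2 formed from PGH2 with GSH was quantified by antibody-based HTRF after stannous chloride quench. Enzyme source was human mPGES-1 microsomes at 40-60 μg/mL protein; DMSO 0.5% (v/v).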

Take `Cc1cccc(Cl)c1Nc1nc2cc(C(=O)Nc3cc(C(F)F)ccc3F)c3c(c2[nH]1)CC(C)(C)O3` [Example-135, 2-((2-Chloro-6-methylphenyl)amino)-N-(5-(difluoromethyl)-2-fluorophenyl)-7,7-dimethyl-7,8-dihydro-1H-benzofuro[4,5-d]imidazole-5-carboxamide]: the inhibition (in general, the share of the control response that was lost under treatment) at 1 µM came to 97.5%; the inhibition at 10 µM is 98.6%; the half-maximal inhibitory concentration (IC50) – broadly, the midpoint of a concentration-inhibition curve – is less than 50 nM.

Regarding `Cn1c(Nc2c(Cl)cncc2Cl)nc2cc(C(=O)Nc3ccc(C(F)(F)F)cn3)c3c(c21)CC(C)(C)O3` [Example-219, 2-((3,5-Dichloropyridin-4-yl)amino)-1,7,7-trimethyl-N-(5-(trifluoromethyl)pyridin-2-yl)-7,8-dihydro-1H-benzofuro[4,5-d]imidazole-5-carboxamide], the inhibition at 1 µM was found to be 97.8% and the inhibition at 10 µM is 98.5%.

On to `Cc1cc2c(o1)c(C(=O)NCC1CCCCC1)cc1nc(Nc3c(F)cccc3Cl)[nH]c12` [Example-49, 2-[(2-Chloro-6-fluorophenyl)amino]-N-(cyclohexylmethyl)-7-methyl-1H-furo[3,2-e]benzimidazole-5-carboxamide], for which the inhibition at 1 µM was determined as 91.6% and the inhibition at 10 µM was found to be 96.1%.

On to `CC(C)(C)CC(C)(C)NC(=O)c1cc2nc(Nc3c(F)cccc3Cl)[nH]c2c2c1OC(C)(C)C2` [Example-52, 2-[(2-Chloro-6-fluorophenyl)amino]-7,7-dimethyl-N-(2,4,4-trimethylpentan-2-yl)-7,8-dihydro-1H-furo[3,2-e]benzimidazole-5-carboxamide], for which the inhibition at 1 µM is 94.3%, the inhibition at 10 µM stood at 96% and the IC50 was less than 50 nM.

`Cc1cccc(Cl)c1Nc1nc2cc(C(=O)Nc3ccc(F)c(F)c3F)c3c(c2[nH]1)CC(C)(C)O3` [Example-202, 2-((2-Chloro-6-methylphenyl)amino)-7,7-dimethyl-N-(2,3,4-trifluorophenyl)-7,8-dihydro-1H-benzofuro[4,5-d]imidazole-5-carboxamide]: the inhibition at 1 µM amounted to 95.1%, the inhibition at 10 µM stood at 100% and the IC50 is less than 50 nM.

Turning to `CC1(C)Cc2c(c(C(=O)NC34CC5CC(CC(C5)C3)C4)cc3nc(Nc4c(Cl)cncc4Cl)[nH]c23)O1` [Example-19, N-Adamantan-1-yl-2-[(3,5-dichloropyridin-4-yl)amino]-7,7-dimethyl-7,8-dihydro-1H-furo[3,2-e]benzimidazole-5-carboxamide], the inhibition at 1 µM is 97.8%, the inhibition at 10 µM worked out at 98.3% and the IC50 was less than 50 nM.

As to `CC1(C)Cc2c(c(C(=O)Nc3ccc(C(F)(F)F)c[n+]3[O-])cc3nc(Nc4c(F)cccc4Cl)[nH]c23)O1` [Example-158, 2-(2-((2-Chloro-6-fluorophenyl)amino)-7,7-dimethyl-7,8-dihydro-1H-benzofuro[4,5-d]imidazole-5-carboxamido)-5-(trifluoromethyl)pyridine 1-oxide], the inhibition at 1 µM is 77% and the inhibition at 10 µM was 97.4%.

With `Cc1cccc(Cl)c1Nc1nc2cc(C(=O)NC3(c4cccc(C(F)(F)F)c4)CC3)c3c(c2[nH]1)CC(C)(C)O3` [Example-132, 2-((2-Chloro-6-methylphenyl)amino)-7,7-dimethyl-N-(1-(3-(trifluoromethyl)phenyl)cyclopropyl)-7,8-dihydro-1H-benzofuro[4,5-d]imidazole-5-carboxamide], the inhibition at 1 µM was 92.4%, the inhibition at 10 µM came out at 98% and the IC50 was less than 50 nM.

On to `Cc1nc2c(o1)c(C(=O)Nc1cc(C(F)(F)F)ccc1F)cc1nc(Nc3c(F)cccc3Cl)[nH]c12` [Example-186, 7-((2-Chloro-6-fluorophenyl)amino)-N-(2-fluoro-5-(trifluoromethyl)phenyl)-2-methyl-8H-imidazol[4′,5′:5,6]-benzo[1,2-d]oxazole-4-carboxamide], for which the inhibition at 1 µM is 98.6%, the inhibition at 10 µM worked out at 98.5% and the IC50 is less than 50 nM.

On to `Cn1c(Nc2c(F)cccc2Cl)nc2cc(C(=O)Nc3ccc(C(F)(F)F)cn3)c3c(c21)CC(C)(C)O3` [Example-157, 2-((2-Chloro-6-fluorophenyl)amino)-1,7,7-trimethyl-N-(5-(trifluoromethyl)pyridin-2-yl)-7,8-dihydro-1H-benzofuro[4,5-d]imidazole-5-carboxamide], for which the inhibition at 1 µM amounted to 98.9%, the inhibition at 10 µM was 99.7% and the IC50 is less than 50 nM.

On to `CC1(C)Cc2c(c(C(=O)NCc3ccccc3C(F)(F)F)cc3nc(Nc4ccccc4Cl)[nH]c23)O1` [Example-88, 2-[(2-Chlorophenyl)amino]-7,7-dimethyl-N-[2-(trifluoromethyl)benzyl]-7,8-dihydro-1H-furo[3,2-e]benzimidazole-5-carboxamide], for which the inhibition at 1 µM came to 85.5%, the inhibition at 10 µM was 99.4% and the IC50 is more than 100 nM.

In the case of `CC(C)(C)c1ccc(NC(=O)c2cc3nc(Nc4c(Cl)cccc4Cl)[nH]c3c3nc(C4CC4)oc23)cc1` [Example-184, N-(4-tert-Butylphenyl)-2-cyclopropyl-7-[(2,6-dichlorophenyl)amino]-8H-imidazo[4,5-e][1,3]benzoxazole-4-carboxamide], the inhibition at 1 µM was determined as 96.9%, the inhibition at 10 µM worked out at 95.9% and the IC50 was less than 50 nM.

As for `CC1(C)Cc2c(c(C(=O)Nc3cc(F)c(F)cc3F)cc3nc(Nc4c(Cl)cccc4Cl)[nH]c23)O1` [Example-141, 2-((2,6-Dichlorophenyl)amino)-7,7-dimethyl-N-(2,4,5-trifluorophenyl)-7,8-dihydro-1H-benzofuro[4,5-d]imidazole-5-carboxamide], the inhibition at 1 µM came to 96.4%, the inhibition at 10 µM was determined as 98.6% and the IC50 was less than 50 nM.

On to `CC1(C)Cc2c(c(C(=O)Nc3ccc(F)c(C(F)(F)F)c3)cc3nc(Nc4c(F)cccc4Cl)[nH]c23)O1` [Example-104, 2-[(2-Chloro-6-fluorophenyl)amino]-N-[4-fluoro-3-(trifluoromethyl)phenyl]-7,7-dimethyl-7,8-dihydro-1H-furo[3,2-e]benzimidazole-5-carboxamide], for which the inhibition at 1 µM was 100%, the inhibition at 10 µM was 92% and the IC50 was less than 50 nM.

`Cn1c(Nc2c(Cl)cncc2Cl)nc2cc(C(=O)Nc3cccc(C(F)(F)F)c3)c3c(c21)CC(C)(C)O3` [Example-214, 2-((3,5-Dichloropyridin-4-yl)amino)-1,7,7-trimethyl-N-(3-(trifluoromethyl)phenyl)-7,8-dihydro-1H-benzofuro[4,5-d]imidazole-5-carboxamide]: the inhibition at 1 µM amounted to 98.4% and the inhibition at 10 µM was 96.5%.

Regarding `CC1(C)Cc2c(c(C(=O)Nc3ccc(C(F)(F)F)nc3)cc3nc(Nc4c(Cl)cccc4Cl)[nH]c23)O1` [Example-166, 2-((2,6-Dichlorophenyl)amino)-7,7-dimethyl-N-(6-(trifluoromethyl)pyridin-3-yl)-7,8-dihydro-1H-benzofuro[4,5-d]imidazole-5-carboxamide], the inhibition at 1 µM was 97.7% and the inhibition at 10 µM stood at 99.6%.

Take `Cc1cccc(Cl)c1Nc1nc2cc(C(=O)Nc3ccc(C(F)(F)F)cc3)c3c(c2[nH]1)CC(C)(C)O3` [Example-108, 2-[(2-Chloro-6-methylphenyl)amino]-7,7-dimethyl-N-[4-(trifluoromethyl)phenyl]-7,8-dihydro-1H-furo[3,2-e]benzimidazole-5-carboxamide]: the inhibition at 1 µM is 93.9%, the inhibition at 10 µM amounted to 96.3% and the IC50 was less than 50 nM.

`CC1(C)Cc2c(c(C(=O)NCC(F)(F)F)cc3nc(Nc4c(Cl)cccc4Cl)[nH]c23)O1` [Example-62, 2-[(2,6-Dichlorophenyl)amino]-7,7-dimethyl-N-(2,2,2-trifluoroethyl)-7,8-dihydro-1H-furo[3,2-e]benzimidazole-5-carboxamide]: the inhibition at 1 µM amounted to 96.8% and the inhibition at 10 µM is 94.3%.

As to `CC1(C)Cc2c(c(C(=O)Nc3cc(C(F)(F)F)ccc3F)cc3nc(Nc4c(Cl)cncc4Cl)[nH]c23)O1` [Example-195, 2-((3,5-Dichloropyridin-4-yl)amino)-N-(2-fluoro-5-(trifluoromethyl)phenyl)-7,7-dimethyl-7,8-dihydro-1H-benzofuro[4,5-d]imidazole-5-carboxamide], the inhibition at 1 µM was found to be 98.8%, the inhibition at 10 µM came out at 99% and the IC50 is less than 50 nM.

As to `CC1(C)Cc2c(c(C(=O)Nc3ccc(C(F)(F)F)cn3)cc3nc(Nc4c(Cl)cccc4Cl)[nH]c23)O1` [Example-101, 2-[(2,6-Dichlorophenyl)amino]-7,7-dimethyl-N-[5-(trifluoromethyl)pyridin-2-yl]-7,8-dihydro-1H-furo[3,2-e]benzimidazole-5-carboxamide], the inhibition at 1 µM worked out at 97.6%, the inhibition at 10 µM was 98% and the IC50 is less than 50 nM.

Regarding `Cc1cccc(Cl)c1Nc1nc2cc(C(=O)Nc3c(F)cc(F)cc3F)c3c(c2[nH]1)CC(C)(C)O3` [Example-109, 2-[(2-Chloro-6-methylphenyl)amino]-7,7-dimethyl-N-(2,4,6-trifluorophenyl)-7,8-dihydro-1H-furo[3,2-e]benzimidazole-5-carboxamide], the inhibition at 1 µM was found to be 93.8%, the inhibition at 10 µM came to 98.8% and the IC50 fell in the range of 50 to 100 nM.

With `Cc1nc2c(o1)c(C(=O)Nc1ccc(C(C)(C)C#N)cc1)cc1nc(Nc3c(Cl)cccc3Cl)[nH]c12` [Example-190, N-[4-(2-Cyanopropan-2-yl)phenyl]-7-[(2,6-dichlorophenyl)amino]-2-methyl-8H-imidazo[4,5-e][1,3]benzoxazole-4-carboxamide], the inhibition at 1 µM was 81.2%, the inhibition at 10 µM came out at 89.5% and the IC50 is more than 100 nM.
